Test results from patent US11827724B2, “Polytetrafluoroethylene and method for producing same” (DAIKIN INDUSTRIES, LTD., priority 2009, dated 2023).
Like-named read-outs stand apart in the source and are kept apart here.

Tests used:
[1] = Log POW, distribution coefficient between 1-octanol and water; details: fluorinated surfactants used in Examples; octanol/water (1:1)
Excerpt: The Log POW is distribution coefficient between 1-octanol and water. The Log POW is represented by Log P, wherein P is the ratio of a concentration of a fluorinated surfactant in an octanol phase to a concentration of a fluorinated surfactant in a water phase when an octanol/water (1:1) mixture containing a fluorinated surfactant is phase-separated.

[2] = PFOA, stated in description as comparison; cited from earlier work

Compound	Log POW [1]	Log POW [2]
N.O=C(O)C(F)(OC(F)(F)C(F)(OC(F)(F)F)C(F)(F)F)C(F)(F)F (centres unmarked) [CF3—O—CF(CF3)CF2O—CF(CF3) COONH4]	3.4	
N.O=C(O)C(F)(F)C(F)(F)C(F)(F)C(F)(F)C(F)(F)C(F)(F)C(F)(F)F [PFOA, perfluoro octanoic acid ammonium]		3.5
